Earlier results on five compounds are cited in PMC10444862, “Using macromolecular electron densities to improve the enrichment of active compounds in virtual screening” (Communications Chemistry, 2023).

This series deals with AMPC. The settings on record: activities reported in the DUD-E dataset; cited from earlier work.
Regarding `O=C(O)c1sccc1S(=O)(=O)Nc1ccccc1N1CCCCC1` [104_58, O=C([O-])c1sccc1S(=O)(=O)Nc1ccccc1N1CCCCC1], the label result is “active”. With `O=C(O)c1ccccc1S(=O)(=O)Nc1ccc(Cl)cc1` [109_49, O=C([O-])c1ccccc1S(=O)(=O)Nc1ccc(Cl)cc1], the label result was “active”. Turning to `CSCC[C@@H](C(=O)O)N1C(=O)c2ccc(C(=O)O)cc2C1=O` [212_4, CSCC[C@@H](C(=O)[O-])N1C(=O)c2ccc(C(=O)[O-])cc2C1=O], the label entry is “active”. As to `Nc1onc(-c2ccc(Cl)cc2)c1C(=O)O` [317_12, Nc1onc(-c2ccc(Cl)cc2)c1C(=O)[O-]], the label result is “active”. Turning to `Cc1nc2ccc(P(=O)(O)O)cc2s1` [319_2, Cc1nc2ccc([P@](=O)([O-])O)cc2s1], the label result is listed as “active”.
